ChEMBL document CHEMBL6115031, “Structure-Based Optimization of Moracin M as Potent and Selective PDE4 Inhibitors with Antipsoriasis Effects” (J Med Chem, 2025)
pIC50: −log10 of the molar value. Activity calls are given as the source filed them. The rule behind the calls is not given here.

What was measured:
[1] = Drug absorption in rat skin assessed as skin permeability by measuring steady-state transdermal flux administered topically as 0.3% ointment at 100 mg by HPLC analysis; format: ADME, tissue-based, Skin of body; conditions: in vivo, topical_or_ocular
[2] = tested on: HaCaT; test: Anti-inflammatory activity in M5- stimulated human HaCaT cells assessed as reduction in TNF-alpha mRNA level incubated for 24 hrs by q-PCR analysis; format: functional, cell-based; conditions: dose 5-20 µM
[3] = tested on: Mus musculus; test: Anti-psoriasis effect in IMQ-induced female BALB/c mouse assessed as change in weight of spleen at 20 mg/kg administered topically as 0.3 % ointment pretreated with IMQ for 6 hrs followed by compound addition once daily for 7 days by H and E staining based analysis; format: functional, organism-based; conditions: time 7.0 day
[4] = tested on: Mus musculus; test: Anti-psoriasis effect in IMQ-induced female BALB/c mouse model assessed as reduction in fibroblast proliferation at 20 mg/kg administered topically as 0.3 % ointment pretreated with IMQ for 6 hrs followed by compound addition once daily for 7 days by H and E staining based analysis; format: functional, organism-based; conditions: time 7.0 day
[5] = tested on: HaCaT; test: Anti-psoriasis effect in M5-stimulated human HaCaT cells assessed as inhibition of cell proliferation at 20 uM pretreated with M5 followed by compound addition and measured after 24 hrs; format: functional, cell-based
[6] = tested on: Mus musculus; test: Anti-psoriasis effect in female BALB/c mouse model assessed as reduction in K17 protein expression at 20 mg/kg administered topically as 0.3 % ointment pretreated with IMQ for 6 hrs followed by compound addition once daily for 7 days by Western blotting analysis; format: functional, organism-based; conditions: time 7.0 day
[7] = tested on: Mus musculus; test: Anti-psoriasis effect in IMQ-induced female BALB/c mouse assessed as decrease in erythema scores at 20 mg/kg administered topically as 0.3 % ointment pretreated with IMQ for 6 hrs followed by compound addition once daily for 7 days; format: functional, organism-based; conditions: time 7.0 day
[8] = tested on: Mus musculus; test: Anti-inflammatory activity in IMQ-induced psoriasis in female BALB/c mouse assessed as reduction in CXCL-2 mRNA level at 20 mg/kg administered topically as 0.3 % ointment pretreated with IMQ for 6 hrs followed by compound addition once daily for 7 days by q-PCR analysis; format: functional, organism-based; conditions: time 7.0 day
[9] = tested on: HaCaT; test: Inhibition of CREB phosphorylation in human HaCaT cells assessed as increase in pCREB/CREB ratio at 20 uM incubated for 2 hrs by Western blotting analysis; format: cell-based
[10] = tested on: Mus musculus; test: Anti-psoriasis effect in IMQ-induced female BALB/c mouse assessed as decrease in skin thickness at 20 mg/kg administered topically as 0.3 % ointment pretreated with IMQ for 6 hrs followed by compound addition once daily for 7 days; format: functional, organism-based; conditions: time 7.0 day
[11] = tested on: Mus musculus; test: Anti-psoriasis effect in IMQ-induced female BALB/c mouse assessed as reduction in severity of skin erythema at 20 mg/kg administered topically as 0.3 % ointment pretreated with IMQ for 6 hrs followed by compound addition once daily for 7 days; format: functional, organism-based; conditions: time 7.0 day
[12] = tested on: HaCaT; test: Anti-psoriasis effect in M5-stimulated human HaCaT cells assessed as decrease in K6 protein expression at 20 uM pretreated with M5 followed by compound addition and measured after 24 hrs by Western blotting analysis; format: functional, cell-based
[13] = tested on: Mus musculus; test: Anti-psoriasis effect in female BALB/c mouse model assessed as reduction in K6 protein expression at 20 mg/kg administered topically as 0.3 % ointment pretreated with IMQ for 6 hrs followed by compound addition once daily for 7 days by Western blotting analysis; format: functional, organism-based; conditions: time 7.0 day
[14] = tested on: Mus musculus; test: Anti-psoriasis effect in IMQ-induced female BALB/c mouse assessed as change in size of spleen at 20 mg/kg administered topically as 0.3 % ointment pretreated with IMQ for 6 hrs followed by compound addition once daily for 7 days by H and E staining based analysis; format: functional, organism-based; conditions: time 7.0 day
[15] = tested on: RAW264.7; test: Anti-inflammatory activity in LPS-stimulated mouse RAW264.7 cells assessed as reduction in IL-6 mRNA level pretreated with compound for 2 hrs followed by LPS stimulation and measured after 6 hrs by q-PCR analysis; format: functional, cell-based; conditions: dose 5-20 µM, time 8.0 hrs
[16] = target: cAMP and cAMP-inhibited cGMP 3',5'-cyclic phosphodiesterase 10A (Homo sapiens, UniProt Q9Y233); test: Inhibition of PDE10A2 (449 to 770 residues) (unknown origin) extracted from Escherichia coli BL21 cells using 3H-cAMP/3H-cGMP as substrate preincubated with compound for 15 mins followed by substrate addition by liquid scintillation counter
[17] = tested on: Mus musculus; test: Anti-inflammatory activity in IMQ-induced psoriasis in female BALB/c mouse assessed as reduction in IL-17 mRNA level at 20 mg/kg administered topically as 0.3 % ointment pretreated with IMQ for 6 hrs followed by compound addition once daily for 7 days by q-PCR analysis; format: functional, organism-based; conditions: time 7.0 day
[18] = tested on: HaCaT; test: Anti-psoriasis effect in M5-stimulated human HaCaT cells assessed as decrease in K17 protein expression at 20 uM pretreated with M5 followed by compound addition and measured after 24 hrs by Western blotting analysis; format: functional, cell-based
[19] = tested on: Mus musculus; test: Anti-psoriasis effect in IMQ-induced female BALB/c mouse model assessed as reduction in abnormal rete ridges at 20 mg/kg administered topically as 0.3 % ointment pretreated with IMQ for 6 hrs followed by compound addition once daily for 7 days by H and E staining based analysis; format: functional, organism-based; conditions: time 7.0 day
[20] = tested on: HaCaT; test: Anti-psoriasis effect in M5-stimulated human HaCaT cells assessed as upregulation of K10 protein expression at 20 uM pretreated with M5 followed by compound addition and measured after 24 hrs by Western blotting analysis; format: functional, cell-based

Sequence of cAMP and cAMP-inhibited cGMP 3',5'-cyclic phosphodiesterase 10A (Q9Y233 whole entry, the tested form may be a part): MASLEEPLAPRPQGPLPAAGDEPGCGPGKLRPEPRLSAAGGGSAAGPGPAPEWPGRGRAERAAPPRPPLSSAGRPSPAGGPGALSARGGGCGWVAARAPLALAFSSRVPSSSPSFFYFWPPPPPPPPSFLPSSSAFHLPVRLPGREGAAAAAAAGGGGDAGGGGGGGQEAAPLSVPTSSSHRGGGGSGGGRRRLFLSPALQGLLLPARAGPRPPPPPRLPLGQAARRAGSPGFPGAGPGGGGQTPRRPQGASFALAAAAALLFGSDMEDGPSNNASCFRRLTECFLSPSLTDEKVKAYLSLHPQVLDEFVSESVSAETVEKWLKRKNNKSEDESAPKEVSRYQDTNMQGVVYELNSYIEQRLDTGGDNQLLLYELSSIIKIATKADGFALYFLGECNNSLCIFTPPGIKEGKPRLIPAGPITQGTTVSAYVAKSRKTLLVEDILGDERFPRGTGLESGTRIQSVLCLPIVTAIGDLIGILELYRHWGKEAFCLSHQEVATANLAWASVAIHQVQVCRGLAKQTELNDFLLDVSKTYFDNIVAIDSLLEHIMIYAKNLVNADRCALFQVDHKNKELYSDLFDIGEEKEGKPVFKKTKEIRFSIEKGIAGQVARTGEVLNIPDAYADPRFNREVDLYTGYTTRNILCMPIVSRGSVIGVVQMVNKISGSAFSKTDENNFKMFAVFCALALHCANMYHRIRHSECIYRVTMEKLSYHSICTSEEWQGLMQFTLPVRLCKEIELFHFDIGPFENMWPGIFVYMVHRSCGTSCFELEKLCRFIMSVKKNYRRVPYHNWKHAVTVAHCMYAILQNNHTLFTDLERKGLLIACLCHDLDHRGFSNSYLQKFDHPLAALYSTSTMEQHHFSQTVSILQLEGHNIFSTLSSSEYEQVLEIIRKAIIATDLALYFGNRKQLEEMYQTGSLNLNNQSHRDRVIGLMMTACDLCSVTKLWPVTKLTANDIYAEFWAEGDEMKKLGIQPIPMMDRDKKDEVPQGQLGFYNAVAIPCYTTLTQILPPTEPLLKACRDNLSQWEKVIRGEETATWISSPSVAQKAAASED

COC(=O)[C@H]1C[C@@H](Oc2c(O)ccc3cc(-c4ccc(OC(F)F)c(OCC5CC5)c4)oc23)CN1
Jss [1]: 0.43 ug/cm2.hr
Activity [2]: Dose-dependent-effect
Activity [3]: Active
Activity [4]: Active
Activity [5]: Active
Activity [6]: Active
Activity [7]: Active
Activity [8]: Active
inhibition [9]: Active
Activity [10]: Active
Activity [11]: Active
Activity [12]: Active
Activity [13]: Active
Activity [14]: Active
Activity [15]: Dose-dependent-effect
pIC50 [16]: 5.71
Activity [17]: Active
Activity [18]: Active
Activity [19]: Active
Activity [20]: Active
